Earlier results in patent publication US12414914B2, “Docetaxel composition for injection and preparation method therefor” (BIKA BIOTECHNOLOGY (GUANGZHOU) CO., LTD, priority 2018, dated 2025).

Experiments:
microtubules [1] = tested on: microtubules
microtubules [2] = conditions: compared to paclitaxel
cancer cells = conditions: compared to paclitaxel

- stability in alkaline conditions (alkaline conditions): unstable in alkaline conditions
- solubility in ethanol (ethanol): soluble in ethanol
- solubility in water (water): practically insoluble in water
Compound: CC(=O)O[C@@]12CO[C@@H]1C[C@H](O)[C@@]1(C)C(=O)[C@H](O)C3=C(C)[C@@H](OC(=O)[C@H](O)[C@@H](NC(=O)OC(C)(C)C)c4ccccc4)C[C@@](O)([C@@H](OC(=O)c4ccccc4)[C@H]21)C3(C)C (relative stereo) [docetaxel, [2aR-(2aα, 4β, 4aβ, 6β, 9α, (aR*, βS*), 11α, 12α, 12aα, 12bα)]-β-[[(1,1-dimethylethoxy)carbonyl]amino]-α-hydroxybenzene propanoic acid [12b-acetyloxy-12-benzoyloxy-2a, 3,4,4a, 5,6,9, 10, 11, 12, 12a, 12b-dodecahydro-4,6, 11-trihydroxy-4a, 8, 13, 13-tetramethyl-5-oxo-7, 11-methano-1H-cyclodeca-[3, 4]benz [1,2-b]oxet-9-yl] ester]
- Affinity to microtubules compared to paclitaxel (microtubules [1]): 2 times higher
- activity as microtubule stabilizer and assembly promoter relative to paclitaxel (microtubules [2]): twice as active as paclitaxel
- activity as microtubule-depolymerizing inhibitor relative to paclitaxel (microtubules [2]): twice as active as paclitaxel
- anti-tumor activity in vitro relative to paclitaxel (cancer cells): 1.3˜12 times more active
